# Measured values taken from PubChem BioAssay AID2060489 (Molecular Pharmacology Branch, DTP, NCI, 2025).
# Tested on: 922993-354-T-J3-PDC complex spheroids, viability
# Test: Anticancer human tumor 922993-354-T-J3-PDC patient-derived endometrial carcinoma cell line growth inhibition [GQUAD]
# Conditions: for IC50: curve of first compound; for viability, T/C: stronger effect = lower value
# Method in brief: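 Viability of tumor cells grown as complex spheroids with endothelial and stromal cells, exposed to drug combinations. Top concentration at or near clinical Cmax (else 10 microM), diluted in half-log increments.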
# [1] = second compound 0.0316 µM, first compound 0.0316 µM
# [2] = second compound 0.0316 µM, first compound 0.1 µM
# [3] = second compound 0.0316 µM, first compound 0.316 µM
# [4] = second compound 0.0316 µM, first compound 1 µM
# [5] = second compound 0.0316 µM, first compound 3.16 µM
# [6] = second compound 0.0316 µM, first compound 10 µM
# [7] = second compound 0.1 µM, first compound 0.0316 µM
# [8] = second compound 0.1 µM, first compound 0.1 µM
# [9] = second compound 0.1 µM, first compound 0.316 µM
# [10] = second compound 0.1 µM, first compound 1 µM
# [11] = second compound 0.1 µM, first compound 3.16 µM
# [12] = second compound 0.1 µM, first compound 10 µM
# [13] = second compound 0.316 µM, first compound 0.0316 µM
# [14] = second compound 0.316 µM, first compound 0.1 µM
# [15] = second compound 0.316 µM, first compound 0.316 µM
# [16] = second compound 0.316 µM, first compound 1 µM
# [17] = second compound 0.316 µM, first compound 3.16 µM
# [18] = second compound 0.316 µM, first compound 10 µM
# [19] = second compound 1 µM, first compound 0.0316 µM
# [20] = second compound 1 µM, first compound 0.1 µM
# [21] = second compound 1 µM, first compound 0.316 µM
# [22] = second compound 1 µM, first compound 1 µM
# [23] = second compound 1 µM, first compound 3.16 µM
# [24] = second compound 1 µM, first compound 10 µM
# [25] = second compound 3.16 µM, first compound 0.0316 µM
# [26] = second compound 3.16 µM, first compound 0.1 µM
# [27] = second compound 3.16 µM, first compound 0.316 µM
# [28] = second compound 3.16 µM, first compound 1 µM
# [29] = second compound 3.16 µM, first compound 3.16 µM
# [30] = second compound 3.16 µM, first compound 10 µM
# [31] = second compound 10 µM, first compound 0.0316 µM
# [32] = second compound 10 µM, first compound 0.1 µM
# [33] = second compound 10 µM, first compound 0.316 µM
# [34] = second compound 10 µM, first compound 1 µM
# [35] = second compound 10 µM, first compound 3.16 µM
# [36] = second compound 10 µM, first compound 10 µM
# [37] = second compound 0.0316 µM, first compound 0.000999 µM
# [38] = second compound 0.0316 µM, first compound 0.00316 µM
# [39] = second compound 0.0316 µM, first compound 0.00999 µM
# [40] = second compound 0.0316 µM, first compound 0.0999 µM
# [41] = second compound 0.1 µM, first compound 0.000999 µM
# [42] = second compound 0.1 µM, first compound 0.00316 µM
# [43] = second compound 0.1 µM, first compound 0.00999 µM
# [44] = second compound 0.1 µM, first compound 0.0999 µM
# [45] = second compound 0.316 µM, first compound 0.000999 µM
# [46] = second compound 0.316 µM, first compound 0.00316 µM
# [47] = second compound 0.316 µM, first compound 0.00999 µM
# [48] = second compound 0.316 µM, first compound 0.0999 µM
# [49] = second compound 1 µM, first compound 0.000999 µM
# [50] = second compound 1 µM, first compound 0.00316 µM
# [51] = second compound 1 µM, first compound 0.00999 µM
# [52] = second compound 1 µM, first compound 0.0999 µM
# [53] = second compound 3.16 µM, first compound 0.000999 µM
# [54] = second compound 3.16 µM, first compound 0.00316 µM
# [55] = second compound 3.16 µM, first compound 0.00999 µM
# [56] = second compound 3.16 µM, first compound 0.0999 µM
# [57] = second compound 10 µM, first compound 0.000999 µM
# [58] = second compound 10 µM, first compound 0.00316 µM
# [59] = second compound 10 µM, first compound 0.00999 µM
# [60] = second compound 10 µM, first compound 0.0999 µM
# 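Also: spheroids exposed to compounds for seven days.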
# 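For viability, T/C in this document: 100% = DMSO vehicle control viability.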
compound,measurement,setting,value
O=C(c1cc(Cc2n[nH]c(=O)c3ccccc23)ccc1F)N1CCN(C(=O)C2CC2)CC1 + CN(C)c1ccc(Nc2c3ccc(NC(=O)CCN4CCCC4)cc3nc3cc(NC(=O)CCN4CCCC4)ccc23)cc1,IC50,second compound 0.0316 µM,> 10000 nM
same,IC50,second compound 0.1 µM,> 10000 nM
same,IC50,second compound 0.316 µM,> 10000 nM
same,IC50,second compound 1 µM,> 10000 nM
same,IC50,second compound 3.16 µM,> 10000 nM
same,IC50,second compound 10 µM,> 10000 nM
same,"viability, T/C",[1],103%
same,"viability, T/C",[2],105%
same,"viability, T/C",[3],94.2%
same,"viability, T/C",[4],86.5%
same,"viability, T/C",[5],89.8%
same,"viability, T/C",[6],106%
same,"viability, T/C",[7],115%
same,"viability, T/C",[8],81.9%
same,"viability, T/C",[9],91.9%
same,"viability, T/C",[10],86%
same,"viability, T/C",[11],94.9%
same,"viability, T/C",[12],106%
same,"viability, T/C",[13],89.5%
same,"viability, T/C",[14],84.3%
same,"viability, T/C",[15],115%
same,"viability, T/C",[16],87.3%
same,"viability, T/C",[17],91.2%
same,"viability, T/C",[18],78.5%
same,"viability, T/C",[19],83.7%
same,"viability, T/C",[20],86.5%
same,"viability, T/C",[21],87.8%
same,"viability, T/C",[22],74.7%
same,"viability, T/C",[23],97.5%
same,"viability, T/C",[24],107%
same,"viability, T/C",[25],84.2%
same,"viability, T/C",[26],105%
same,"viability, T/C",[27],110%
same,"viability, T/C",[28],75.5%
same,"viability, T/C",[29],120%
same,"viability, T/C",[30],93.7%
same,"viability, T/C",[31],110%
same,"viability, T/C",[32],128%
same,"viability, T/C",[33],109%
same,"viability, T/C",[34],99.4%
same,"viability, T/C",[35],133%
same,"viability, T/C",[36],132%
CC[C@@]1(O)C(=O)OCc2c1cc1n(c2=O)Cc2cc3c(CN(C)C)c(O)ccc3nc2-1 + Cc1cnc(CNC(=O)c2c(=O)c3ccc(N4CCCN(C)CC4)nc3n3c2sc2ccccc23)cn1,IC50,second compound 0.0316 µM,> 316 nM
same,IC50,second compound 0.1 µM,125 nM
same,IC50,second compound 0.316 µM,3.91 nM
same,IC50,second compound 1 µM,81.8 nM
same,IC50,second compound 3.16 µM,53 nM
same,IC50,second compound 10 µM,< 0.999 nM
same,"viability, T/C",[37],94.7%
same,"viability, T/C",[38],86.6%
same,"viability, T/C",[39],84%
same,"viability, T/C",[1],86.9%
same,"viability, T/C",[40],83.2%
same,"viability, T/C",[3],54.6%
same,"viability, T/C",[41],60.6%
same,"viability, T/C",[42],74.2%
same,"viability, T/C",[43],55.1%
same,"viability, T/C",[7],61%
same,"viability, T/C",[44],50.4%
same,"viability, T/C",[9],42.7%
same,"viability, T/C",[45],58.6%
same,"viability, T/C",[46],53.5%
same,"viability, T/C",[47],46.7%
same,"viability, T/C",[13],37.5%
same,"viability, T/C",[48],41.1%
same,"viability, T/C",[15],40.3%
same,"viability, T/C",[49],42.2%
same,"viability, T/C",[50],58.5%
same,"viability, T/C",[51],39.6%
same,"viability, T/C",[19],62.3%
same,"viability, T/C",[52],49.1%
same,"viability, T/C",[21],36.2%
same,"viability, T/C",[53],52.1%
same,"viability, T/C",[54],54.9%
same,"viability, T/C",[55],63.4%
same,"viability, T/C",[25],42.5%
same,"viability, T/C",[56],49.2%
same,"viability, T/C",[27],45.3%
same,"viability, T/C",[57],45.5%
same,"viability, T/C",[58],36.3%
same,"viability, T/C",[59],43.3%
same,"viability, T/C",[31],44.1%
same,"viability, T/C",[60],46.2%
same,"viability, T/C",[33],47.5%
CCc1c2c(nc3ccc(O)cc13)-c1cc3c(c(=O)n1C2)COC(=O)[C@]3(O)CC + Cc1cnc(CNC(=O)c2c(=O)c3ccc(N4CCCN(C)CC4)nc3n3c2sc2ccccc23)cn1,IC50,second compound 0.0316 µM,11.3 nM
same,IC50,second compound 0.1 µM,5.27 nM
same,IC50,second compound 0.316 µM,< 0.999 nM
same,IC50,second compound 1 µM,5.12 nM
same,IC50,second compound 3.16 µM,< 0.999 nM
same,IC50,second compound 10 µM,< 0.999 nM
same,"viability, T/C",[37],85.3%
same,"viability, T/C",[38],74.5%
same,"viability, T/C",[39],54.5%
same,"viability, T/C",[1],25.2%
same,"viability, T/C",[40],24.4%
same,"viability, T/C",[3],31.6%
same,"viability, T/C",[41],66.8%
same,"viability, T/C",[42],63.4%
same,"viability, T/C",[43],33.2%
same,"viability, T/C",[7],23.4%
same,"viability, T/C",[44],29.4%
same,"viability, T/C",[9],33.4%
same,"viability, T/C",[45],53.9%
same,"viability, T/C",[46],43.3%
same,"viability, T/C",[47],32.2%
same,"viability, T/C",[13],26.3%
same,"viability, T/C",[48],45.5%
same,"viability, T/C",[15],52.1%
same,"viability, T/C",[49],48.7%
same,"viability, T/C",[50],60.6%
same,"viability, T/C",[51],43.5%
same,"viability, T/C",[19],37%
same,"viability, T/C",[52],42.1%
same,"viability, T/C",[21],38.1%
same,"viability, T/C",[53],44.7%
same,"viability, T/C",[54],44%
same,"viability, T/C",[55],46.5%
same,"viability, T/C",[25],49%
same,"viability, T/C",[56],47.4%
same,"viability, T/C",[27],38.8%
same,"viability, T/C",[57],37.6%
same,"viability, T/C",[58],49.3%
same,"viability, T/C",[59],45.3%
same,"viability, T/C",[31],44.1%
same,"viability, T/C",[60],45%
same,"viability, T/C",[33],26%
Nc1ccn(C2OC(CO)C(O)C2(F)F)c(=O)n1 (stereo not drawn) + Cc1[nH]c2ccc(F)cc2c1-c1nc2c3cccnc3c3ncccc3c2[nH]1,IC50,second compound 0.0316 µM,< 31.6 nM
same,IC50,second compound 0.1 µM,< 31.6 nM
same,IC50,second compound 0.316 µM,< 31.6 nM
same,IC50,second compound 1 µM,< 31.6 nM
same,IC50,second compound 3.16 µM,< 31.6 nM
same,IC50,second compound 10 µM,< 31.6 nM
same,"viability, T/C",[1],25.1%
same,"viability, T/C",[2],27.1%
same,"viability, T/C",[3],25.2%
same,"viability, T/C",[4],18.3%
same,"viability, T/C",[5],22.5%
same,"viability, T/C",[6],21.7%
same,"viability, T/C",[7],25.6%
same,"viability, T/C",[8],23.2%
same,"viability, T/C",[9],23.9%
same,"viability, T/C",[10],21.1%
same,"viability, T/C",[11],23%
same,"viability, T/C",[12],22.9%
same,"viability, T/C",[13],25.1%
same,"viability, T/C",[14],23.4%
same,"viability, T/C",[15],24%
same,"viability, T/C",[16],19.2%
same,"viability, T/C",[17],22.7%
same,"viability, T/C",[18],22.1%
same,"viability, T/C",[19],22.4%
same,"viability, T/C",[20],25.7%
same,"viability, T/C",[21],20.1%
same,"viability, T/C",[22],26.4%
same,"viability, T/C",[23],24.2%
same,"viability, T/C",[24],21.7%
same,"viability, T/C",[25],22.6%
same,"viability, T/C",[26],29.2%
same,"viability, T/C",[27],23.3%
same,"viability, T/C",[28],20.4%
same,"viability, T/C",[29],27%
same,"viability, T/C",[30],18.3%
same,"viability, T/C",[31],27.6%
same,"viability, T/C",[32],22.3%
same,"viability, T/C",[33],27%
same,"viability, T/C",[34],23.4%
same,"viability, T/C",[35],26.3%
same,"viability, T/C",[36],26.3%
